Measured values taken from publication PMC9229798, “Antioxidant Activity and Cytotoxicity of Aromatic Oligosulfides” (Molecules, 2022).
Each block holds one compound with its values, some of them ahead of it.

Columns and labels:
A-549 = assay: MTT assay; type: cell-based, human
Experimental: (§1) The antiproliferative activity of aromatic oligosulfides 1–6 was determined against human cell lines, including colon carcinoma HCT-116, breast adenocarcinoma MCF-7, lung adenocarcinoma A-549, colorectal carcinoma SW-480, and non-tumourigenic WI-38, using the MTT assay (Table 4). […] However, some selectivity for cancer cells was evident and the IC50 values for non-tumourigenic cells were slightly higher for compounds 1 and 2.
(§2) Cell survival was determined by the MTT [3-(4,5-[…])-2,5-diphenyl tetrazolium bromide] assay by Niks method with small modifications. HCT-116 (colon carcinoma), MCF-7 (breast adenocarcinoma), A-549 (lung adenocarcinoma) and SW-480 (colorectal carcinoma) human cancer cell lines and WI-38 (cell line composed of fibroblasts) were cultured in DMEM (PanEco, Moscow, Russia) with Glutamin (PanEco, Moscow, Russia) and antibiotics (PanEco, Moscow, Russia) in CO2 (5%) at 37 °C. The compounds were dissolved (20 mM) in DMSO and then added to the cell culture medium at the required concentration with a maximum DMSO content of 0.5 v/v%. At these concentrations, DMSO had no effect on cell viability, as was shown in the control experiments. Cells were cultured in 96-well plates (7000 cells/well) and treated with various concentrations (from […]) of the test compounds as well as doxorubicin at 37 °C for 72 h. Cell viability was determined using the MTT assay, which quantified dehydrogenase activity. Then, the cells were incubated at 37 °C for 50 min with a solution of MTT ([…], 5 mg × mL^−1) (Sigma-Aldrich, St. Louis, MO, USA). The supernatant was discarded, and cells were dissolved in DMSO ([…]). The optical density of the solution was measured at 570 nm with use of a multiwall-plate reader (Anthos Zenyth 2000rt, Biochrom, Cambridge, UK), and the percentage of surviving cells was calculated from the absorbance of untreated cells. Each experiment was repeated at least three times, and each concentration was tested in at least three replicates. Data were presented as a graph of the percentage of surviving cells versus the concentration of the test substances. The meanings of 50% inhibition concentration (IC50) with standard deviation were calculated using GraphPad Prism Version 5.03 for Windows (GraphPad Software, San Diego, CA, USA).

HCT-116 [1] = assay: MTT assay; type: cell-based, human
Experimental: as §1, §2

MCF-7 = assay: MTT assay; type: cell-based, human
Experimental: as §1, §2

SW-480 = assay: MTT assay; type: cell-based, human
Experimental: as §1, §2

HCT-116 [2] = assay: Annexin V/Dead Cell assay; type: cell-based, human; conditions: HCT-116, 2 × IC50, 24 h
Description: Apoptosis or programmed cell death is an important and active regulatory pathway of cell growth and proliferation. Cells respond to specific induction signals by initiating intracellular processes that result in characteristic physiological changes. Among these are externalization of phosphatidylserine (PS) to the cell surface, cleavage and degradation of specific cellular proteins, compaction and fragmentation of nuclear chromatin, and loss of membrane integrity. Phosphatidylserine (PS) is normally located in the inner part of the cell membrane. In the initial stage of apoptosis, the PS residues which translocated to the extracellular are detected by Annexin V, which is a calcium-dependent phospholipid-binding protein with a high affinity for PS. Annexin V flow cytometric assay was used to evaluate the compounds’ ability to induce apoptosis and influence on cell death. HCT-116 colon carcinoma and A-549 lung adenocarcinoma cells were treated by disulfides 2 and 3.
HCT-116 (colon carcinoma) and A-549 (lung carcinoma) cells (1 × 10^6) were seeded in a six-well plate and were incubated for 24 h. […] After incubation, the cells were harvested by trypsinization, precipitated by centrifugation (3000 rpm), washed with PBS, recentrifuged, and the buffer was removed. DMEM was added to achieve a cell concentration of 400–1000 cells/µL. The Muse Annexin V & Dead Cell Kit reagent (100 µL) was added to the cells and […] for 20 min at room temperature in the dark. The results were recorded on a Muse Cell Analyzer flow cytometer (Merck, Rahway, NJ, USA).

[3] = Fe2+ chelating activity; read-out: FIC, IC50 (EDTA activity); cited from earlier work

Compound: N.N.[Cl][Pt][Cl] [cisplatin, reference compound]
IC50 (A-549; 72 h): 20.1 ± 5.6 µM
IC50 (HCT-116 [1]; 72 h): 9.1 ± 2.3 µM
IC50 (MCF-7; 72 h): > 30 µM
IC50 (SW-480; 72 h): 17.6 ± 5.4 µM

IC50 (A-549; Homo sapiens, A549, 72 h): 0.24 ± 0.02 µM
IC50 (HCT-116 [1]; Homo sapiens, HCT-116, 72 h): 0.65 ± 0.05 µM
IC50 (MCF-7; Homo sapiens, MCF7, 72 h): 0.28 ± 0.03 µM
IC50 (SW-480; Homo sapiens, SW480, 72 h): 0.45 ± 0.06 µM
Compound: COc1cccc2c1C(=O)c1c(O)c3c(c(O)c1C2=O)C[C@@](O)(C(=O)CO)C[C@@H]3O[C@H]1C[C@H](N)[C@H](O)[C@H](C)O1 [doxorubicine, doxorubicin, reference compound]
total apoptotic cells (HCT-116 [2]): 17.9%

Compound: O=C([O-])CN(CCN(CC(=O)[O-])CC(=O)O)CC(=O)O.[Na+].[Na+] [EDTA, reference compound]
IC50 [3]: 380 ± 30 µM
